Data reported in paper PMC6370995, “Phase I study of PF‐04895162, a Kv7 channel opener, reveals unexpected hepatotoxicity in healthy subjects, but not rats or monkeys: clinical evidence of disrupted bile acid homeostasis” (Pharmacology Research & Perspectives, 2019).
Where two headings read alike, the source gives them in different places.

Legend:
[1] = test system: healthy subjects; test: Phase 1 clinical study in healthy subjects: safety (adverse events, laboratory tests); type: in vivo, human
Description: A randomized, double‐blind, third‐party open (i.e., subject and Investigator blind, and Sponsor open), placebo‐controlled study was conducted in healthy subjects to investigate the safety, tolerability, and pharmacokinetics of single and multiple oral doses of PF‐04895162 and to characterize the effect of food on the pharmacokinetics of a single oral dose of PF‐04895162. The study was conducted in accordance with the International Conference on Harmonization guideline for Good Clinical Practice and the principles of the Declaration of Helsinki and was approved by the local independent ethics committee. All subjects gave written informed consent prior to participation in the study. The study was planned as a parallel group, dose escalation study in four cohorts of 10 subjects each, however, the study was terminated prematurely and only Cohort 1 was conducted. After an initial screening visit to confirm eligibility, subjects in Cohort 1 (Figure 1) received single oral doses of 300 mg PF‐04895162 in Period 1 (under fasting conditions) and Period 2 (under fed conditions), and then 300 mg BID PF‐04895162 or placebo for 14 days (under fasting conditions) in Period 3 (the final dose was administered on the morning of Day 14). In Period 2, subjects were given a high‐fat breakfast 25 minutes prior to dosing which had to be consumed within 20 minutes. In all periods, subjects were fasted for at least 8 hours prior to morning dosing (except for breakfast in Period 2), and received lunch and dinner approximately 4 and 9‐10 hours after the morning dose, respectively. In Period 3, subjects were randomized so that eight subjects received PF‐04895162 and two subjects received placebo. The single doses in Periods 1 and 2, and the first dose in Period 3 were each separated by 3 days. A follow‐up visit was conducted 7‐14 days after the final dose. The ClinicalTrials.gov identifier was NCT01691274.
Subjects were healthy males and/or females of nonchildbearing potential, aged 18 to 55 years inclusive with body mass index of 17.5 to 30.5 kg/m^2 and total body weight of >50 kg. Healthy was defined as no clinically relevant abnormalities identified by a detailed medical history, full physical examination, including blood pressure and pulse rate measurement, 12 lead electrocardiograms (ECGs) or clinical laboratory tests. Subjects with evidence or history of clinically significant disease (including drug allergies, but excluding untreated, asymptomatic, seasonal allergies at the time of dosing) and pregnant or nursing females were excluded from this study. Subjects with a history of seizures or conditions with a risk of seizures were also excluded. Other exclusion criteria were generally standard for healthy subject studies and included conditions affecting drug absorption, evidence of drug and/or alcohol abuse, and restrictions on the use of prescription, nonprescription, and over‐the‐counter medications and herbal remedies.
Safety was assessed throughout the study by monitoring adverse events, vital signs (blood pressure, pulse rate, and body temperature), 12‐lead ECGs, and physical examinations. Blood samples for safety laboratory assessments were collected prior to and 24 hours after the first single dose of PF‐04895162 (Day 1 and 2 of Period 1), and in Period 3 on Days 7, 14, and 21 (additional samples were also collected in response to emerging safety data). The Columbia suicide severity rating scale (C‐SSRS) was also conducted at screening or baseline and at the follow‐up visit. Blood samples for pharmacokinetic profiles of PF‐04895162 were collected from predose to 72 hours after each single dose (Periods 1 and 2), and up to 12 and 48 hours after morning dosing on Days 7 and 14, respectively, in Period 3. Additional trough samples were also collected on Days 5, 6, 12, and 13 of Period 3.

[2] = test system: Sprague-Dawley rats; test: 28-day Oral Gavage Toxicity and Toxicokinetic Study in Rats; type: in vivo
Description: In the longer-term studies Sprague-Dawley rats were administered PF-04895162 once daily for 28 days or 6 months at doses up to 100 mg/kg/day. […] The drug was well absorbed into the systemic circulation of male and female rats following oral administration for 6 months.

[3] = test system: healthy subjects; settings: cited from earlier work; for subjects with mild/moderate transaminase elevations: ref Pfizer data on file
[4] = 300 mg single dose, fasted, N = 10
[5] = 300 mg single dose, fed, N = 10
[6] = Grade 1, >1.25 - 2.5 × ULN, 300 mg BID
[7] = Grade 2, >2.5 - 5 × ULN, 300 mg BID
[8] = Grade 3, >5 - 10 × ULN, 300 mg BID

SMILES: O=C(Cc1ccc(F)cc1)Nn1c(C2CC2)nc2cc(F)ccc2c1=O [PF‐04895162, N‐(2‐cyclopropyl‐7‐fluoro‐4‐oxoquinazolin‐3(4H)‐yl)‐2‐(4‐fluorophenyl)ethanamide]
- ALT, Subject 8, Day 7 ([1]; 300 mg BID): 1.5 x the ULN
- Height of transaminase elevations ([1]; 300 mg BID, 14-day multiple dose): ≤ 5 x the ULN
- ALT elevation, Subject 8 ([1]; 300 mg BID, Day 14, Grade 3): 5.6 x ULN
- AST increase, Subject 8 ([1]; 300 mg BID, Grade 2): 2.7 x ULN
- Number of Subjects discontinued due to AEs, all causalities ([1]; 300 mg BID, N = 8): 1 (1)
- Number of Subjects discontinued due to AEs, treatment-related ([1]; 300 mg BID, N = 8): 1 (1)
- Number of Subjects with AEs, all causalities ([1]; 300 mg BID, N = 8): 8
- Number of Subjects with AEs, treatment-related ([1]; 300 mg BID, N = 8): 6
- Number of Subjects with Amylase increased, all causalities ([1]; 300 mg BID, N = 8): 2 (2)
- Number of Subjects with Amylase increased, treatment-related ([1]; 300 mg BID, N = 8): 2 (2)
- Number of Subjects with Decreased appetite, all causalities ([1]; 300 mg BID, N = 8): 2
- Number of Subjects with Decreased appetite, treatment-related ([1]; 300 mg BID, N = 8): 0
- Number of Subjects with Flatulence, all causalities ([1]; 300 mg BID, N = 8): 2
- Number of Subjects with Flatulence, treatment-related ([1]; 300 mg BID, N = 8): 1
- Number of Subjects with Transaminases increased, all causalities ([1]; 300 mg BID, N = 8): 6 (6)
- Number of Subjects with Transaminases increased, treatment-related ([1]; 300 mg BID, N = 8): 6 (6)
- Number of Subjects with serious AEs ([1]; 300 mg BID, N = 8): 0
- Number of Subjects with severe AEs ([1]; 300 mg BID, N = 8): 0
- ALT response, Subject 6 ([1]; 300 mg BID, by Day 14): did not demonstrate any ALT elevations
- GGT elevation, Subject 8 ([1]; 300 mg BID, starting on Day 14): 1.4 x ULN
- Subjects with elevations in ALT on Day 14 ([1]; 300 mg BID, subjects who finished Period 3): six of the remaining seven subjects
- Number of Subjects discontinued due to AEs, all causalities [1, 4]: 0
- Number of Subjects with AEs, all causalities [1, 4]: 1 (1)
- Number of Subjects with AEs, treatment-related [1, 4]: 1 (1)
- Number of Subjects with Amylase increased, all causalities [1, 4]: 0
- Number of Subjects with Decreased appetite, all causalities [1, 4]: 0
- Number of Subjects with Flatulence, all causalities [1, 4]: 0
- Number of Subjects with Transaminases increased, all causalities [1, 4]: 0
- Number of Subjects with serious AEs [1, 4]: 0
- Number of Subjects with severe AEs [1, 4]: 0
- Number of Subjects discontinued due to AEs, all causalities [1, 5]: 0
- Number of Subjects with AEs, all causalities [1, 5]: 2
- Number of Subjects with AEs, treatment-related [1, 5]: 0
- Number of Subjects with Amylase increased, all causalities [1, 5]: 0
- Number of Subjects with Decreased appetite, all causalities [1, 5]: 0
- Number of Subjects with Flatulence, all causalities [1, 5]: 0
- Number of Subjects with Transaminases increased, all causalities [1, 5]: 0
- Number of Subjects with serious AEs [1, 5]: 0
- Number of Subjects with severe AEs [1, 5]: 0
- Subjects with transaminase elevations (≥grade 1) ([1]; 300 mg twice daily for 2 weeks, healthy subjects): six of eight
- Lipase, Subject 7 ([1]; Day 3 of Period 3, 300 mg BID, ULN = 60 IU/L): 434 IU/L
- Amylase, Subject 7 ([1]; Day 3 of Period 3, 300 mg BID, ULN = 136 IU/L): 179 IU/L
- TBIL abnormalities, number of subjects, Grade 1 ([1]; Grade 1, >1 - 1.5 × ULN, 300 mg BID): 2
- ALT abnormalities, number of subjects, Grade 1 [1, 6]: 3
- AST abnormalities, number of subjects, Grade 1 [1, 6]: 0
- TBIL abnormalities, number of subjects, Grade 2 ([1]; Grade 2, >1.5 - 2.5 × ULN, 300 mg BID): 0
- ALT abnormalities, number of subjects, Grade 2 [1, 7]: 2
- AST abnormalities, number of subjects, Grade 2 [1, 7]: 1
- TBIL abnormalities, number of subjects, Grade 3 ([1]; Grade 3, >2.5 - 5 × ULN, 300 mg BID): 0
- ALT abnormalities, number of subjects, Grade 3 [1, 8]: 1
- AST abnormalities, number of subjects, Grade 3 [1, 8]: 0
- TBIL abnormalities, number of subjects, Grade 4 ([1]; Grade 4, >5 × ULN, 300 mg BID): 0
- ALT abnormalities, number of subjects, Grade 4 ([1]; Grade 4, >10 × ULN, 300 mg BID): 0
- AST abnormalities, number of subjects, Grade 4 ([1]; Grade 4, >10 × ULN, 300 mg BID): 0
- few feces, incidence ([2]; 100 mg/kg, females): 6/15
- head tremors, incidence ([2]; 100 mg/kg, females): 2/15
- rough haircoat, incidence ([2]; 100 mg/kg, females): 4/15
- clear oral discharge, incidence ([2]; 100 mg/kg, males): 2/15
- microscopic findings in the liver ([2]; 100 mg/kg/day for 28 days): No treatment-related microscopic findings
- body temperature ([2]; 3, 30, 100 mg/kg, 28 days): no apparent treatment-related effect
- clinical pathology data ([2]; 3, 30, 100 mg/kg, 28 days): no apparent treatment-related effects
- gross pathology and mean organ weights ([2]; 3, 30, 100 mg/kg, 28 days): no obvious treatment-related gross pathology findings or mean organ weight changes
- mortality ([2]; 3, 30, 100 mg/kg, 28 days): no mortality
- liver weights ([2]; 28 days, up to 100 mg/kg/day): Increased liver weights
- Day 28 mean body weight ([2]; females, 3 mg/kg): 101 % of control
- Weeks 1-4 food consumption ([2]; females, 3 mg/kg): 101 % of control
- Mean liver weight ([2]; females, 3 mg/kg (cell cut, unit not shown)): 111
- Day 28 mean body weight ([2]; females, 30 mg/kg): 97 % of control
- Weeks 1-4 food consumption ([2]; females, 30 mg/kg): 97 % of control
- Mean liver weight ([2]; females, 30 mg/kg (cell cut, unit not shown)): 106
- Day 28 mean body weight ([2]; females, 100 mg/kg): 95 % of control
- Weeks 1-4 food consumption ([2]; females, 100 mg/kg): 88 % of control
- Day 28 mean body weight ([2]; males, 3 mg/kg): 100 % of the mean control weight
- Weeks 1-4 food consumption ([2]; males, 3 mg/kg): 99 % of the mean control food consumption
- Day 28 mean body weight ([2]; males, 30 mg/kg): 92 % of the mean control weight
- Weeks 1-4 food consumption ([2]; males, 30 mg/kg): 95 % of the mean control food consumption
- Day 28 mean body weight ([2]; males, 100 mg/kg): 90 % of the mean control weight
- Weeks 1-4 food consumption ([2]; males, 100 mg/kg): 87 % of the mean control food consumption
- transaminases ([2]; once daily for 28 days, up to 100 mg/kg/day): No transaminase elevations
- subjects with mild/moderate transaminase elevations ([3]; 250 mg BID for 7 days): one of 12 subjects
- subjects with mild/moderate transaminase elevations ([3]; 300 mg BID for 7 days): one of 12 subjects
- liver injury in healthy subjects ([3]; multiple doses up to 200 mg BID for 7 days): No evidence of liver injury
- liver injury in healthy subjects ([3]; single dose studies up to 600 mg): No evidence of liver injury
